According to patent US20250197420A1, “MACROCYCLIC COMPOUNDS, COMPOSITIONS, AND METHODS OF USING THEREOF” (Sionna Therapeutics Inc., priority 2022, published 2025):

Assays:
[1] = biological target: T1, Purified recombinant NBD1 (Homo sapiens, UniProt P13569); assay: Aggregation analysis using differential static light scattering (DSLS): thermal stability of NBD1; type: binding; details: NBD1 0.2 mg/ml; Tagg of compound well minus average Tagg of DMSO control wells
T1 construct: Purified recombinant NBD1 was produced using previously described methods; made in house
How it was run: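 ΔTagg is compound-well aggregation temperature minus the DMSO-control mean, each Tagg being the inflection point of light scattering measured by DSLS during a 1 °C/min ramp up to 70 °C. The protein was purified NBD1 (0.2 mg/ml) in pH 7.6 buffer containing 2 mM ATP, 5 mM MgCl2 and 1% glycerol.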

[2] = system: Primary human bronchial epithelial cells from a ΔF508 homozygous CF donor (CF-HBE cells); assay: TECC24 recording of CFTR-mediated transepithelial chloride transport, AUC fold over benchmark VX-809 @10 μM; type: cell-based; details: 48 hours incubation, AUC of forskolin-stimulated IEQ
How it was run: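 Values are the forskolin-to-inhibitor-172 AUC of equivalent Cl− current, derived from transepithelial voltage and resistance, divided by the VX-809 AUC and binned as A <3, B 3–6, C 6–20. Cells were pre-incubated with compound for 48 h at 36.5 °C; the bath (pH 7.4) received benzamil 10 μM, forskolin 10 μM, then CFTRinh-172 20 μM.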

T1 sequence (P13569 423-646 limits assumed): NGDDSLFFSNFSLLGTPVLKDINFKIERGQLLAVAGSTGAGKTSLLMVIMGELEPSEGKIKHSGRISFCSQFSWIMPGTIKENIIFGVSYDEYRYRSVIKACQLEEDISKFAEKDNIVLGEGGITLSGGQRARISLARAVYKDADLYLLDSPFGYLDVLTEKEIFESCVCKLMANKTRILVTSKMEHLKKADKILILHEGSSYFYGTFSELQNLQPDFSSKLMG

Row | Compound | DSLS (ΔTagg) [1] | TECC (test agent AUC divided by VX-809 AUC) [2]
1 | CN1CC(C)(C)CCCC(C)(c2cccc(CC(=O)O)c2)c2cnc([nH]2)-c2cc(ccc2F)Oc2c(F)cc3[nH]ccc3c2CCC1=O (single isomer, unassigned) [Compound 65B, 2-[3-(23,29-difluoro-6,10,10,12-tetramethyl-13-oxo-25-oxa-3,12,20,31-tetrazapentacyclo-[24.3.1.12,5.016,24.017,21]hentriaconta-1(30),2,4,16,18,21,23,26,28-nonaen-6-yl)phenyl]acetic acid] | C (a value greater than 10 °C and less than or equal to 25 °C is marked “C”) | A (a TECC value less than 3 is marked “A”)
2 | CC1(C)CCCC(C)(c2cccc(CCC(=O)O)c2)c2cnc([nH]2)-c2cc(ccc2F)Oc2c(F)cc3[nH]ccc3c2CNC(=O)OC1 (stereo not drawn) [Compound 89, 3-[3-(23,29-Difluoro-6,10,10-trimethyl-13-oxo-12,25-dioxa-3,14,20,31-tetrazapentacyclo[24.3.1.12,5.016,24.017,21]hentriaconta-1(30),2,4,16,18,21,23,26,28-nonaen-6-yl)phenyl]propanoic acid] | C (a value greater than 10 °C and less than or equal to 25 °C is marked “C”) | B (a value between 3 and 6 is marked “B”)
3 | CC1(C)CCCCC(C)(c2ccccc2)c2cnc([nH]2)-c2cc(ccc2F)Oc2c(F)cc3[nH]ccc3c2COC(=O)N1 (stereo not drawn) [Compound 94, 23,29-Difluoro-6,11,11-trimethyl-6-phenyl-14,25-dioxa-3,12,20,31-tetrazapentacyclo[24.3.1.12,5.016,24.017,21]hentriaconta-1(30),2,4,16,18,21,23,26,28-nonaen-13-one] | B (a value above 5 °C and less than or equal to 10 °C is marked “B”) | A (a TECC value less than 3 is marked “A”)
4 | CN1CC(C)(C)CCCC[C@](C)(c2cccc(CCC(=O)O)c2)c2nc(n(C)n2)-c2cc(ccn2)Oc2c(F)cc3[nH]ccc3c2CC1=O [Compound 123, 3-[3-[(6R)-23-Fluoro-3,6,11,11,13-pentamethyl-14-oxo-25-oxa-3,4,13,20,29,31-hexazapentacyclo[24.3.1.12,5.016,24.017,21]hentriaconta-1(30),2(31),4,16,18,21,23,26,28-nonaen-6-yl]phenyl]propanoic acid] | C (a value greater than 10 °C and less than or equal to 25 °C is marked “C”) | A (a TECC value less than 3 is marked “A”)
5 | CNC(=O)CCc1cccc(C2(C)CCCC(C)(C)CN(C)C(=O)CCc3c(c(F)cc4[nH]ccc34)Oc3ccc(F)c(c3)-c3ncc2[nH]3)c1 (single isomer, unassigned) [Compound 53B, 3-[3-(23,29-difluoro-6,10,10,12-tetramethyl-13-oxo-25-oxa-3,12,20,31-tetrazapentacyclo-[24.3.1.12,5.016,24.017,21]hentriaconta-1(30),2,4,16,18,21,23,26,28-nonaen-6-yl)phenyl]-N-methyl-propanamide] | B (a value above 5 °C and less than or equal to 10 °C is marked “B”) | A (a TECC value less than 3 is marked “A”)
6 | CC1(c2cccc(CCC(=O)O)c2)CCCCCC(=O)NCC(=O)Cc2c(c(F)cc3[nH]ccc23)Oc2ccc(F)c(c2)-c2ncc1[nH]2 (stereo not drawn) [Compound 111, 3-[3-(24,30-Difluoro-6-methyl-12,15-dioxo-26-oxa-3,13,21,32-tetrazapentacyclo[25.3.1.12,5.017,25.018,22]dotriaconta-1(31),2,4,17,19,22,24,27,29-nonaen-6-yl)phenyl]propanoic acid] | C (a value greater than 10 °C and less than or equal to 25 °C is marked “C”) | C (a value between 6 and 20 is marked “C”)
